What was measured:
[1] = system: C3 fragment deposition on rabbit erythrocytes; assay: C3 fragment deposition on rabbit erythrocytes (flow cytometry); assay type: cell-based; details: Oryctolagus cuniculus, Erythrocyte; 20% C5-depleted normal human serum; read-out: IC50, inhibition of C3 fragment deposition on rabbit erythrocytes
Experimental: Rabbit erythrocytes, C5-depleted normal human serum (C5-Dpl NHS), gelatin veronal buffer (GVB) without Ca^++ and Mg (GVB^0), 100 mM MgCl2+100 mM EGTA (MgEGTA) were obtained from Complement Technology Inc. (Tyler, TX). GVB^0·MgEGTA was prepared by mixing GVB^0 and 100 mM MgEGTA in a 9:1 ratio. FITC-conjugated anti-C3c antibody (cat#ab4212) and Alexa Fluor® 647-conjugated anti human CD59 antibody (cat#: ab187769) were purchased from Abcam (Cambridge, MA).
Reactions were incubated at 37° C. for 15 minutes, the reactions were quenched by addition of EDTA at a final concentration of 20 mM. Cells were stained with a FITC-conjugated anti-C3c antibody at a dilution of 1:200 and C3 fragment deposition on the surface of rabbit erythrocytes was assessed by flow cytometry with BD Accuri C6 cytometer (BD Biosciences, San Jose, CA). Forward and side scatter parameters were used to gate intact erythrocytes. Controls included cells labeled with FITC-conjugated antibody isotype control. IC50 values from each experiment were determined by curve-fitting of experimental data (the % C3 fragment-positive cells at increasing concentrations of inhibitor) to the four-parameter sigmoidal dose-response equation using non-linear regression analysis (Prism Software, GraphPad, La Jolla, CA).

[2] = system: C3 fragment deposition on artificial PNH cells; assay: C3 fragment deposition on artificial PNH cells (flow cytometry); assay type: cell-based; details: 32% acidified C5-depleted normal human serum; read-out: IC50, inhibition of C3 fragment deposition on artificial PNH cells
Experimental: C5-depleted normal human serum (C5-Dpl NHS), gelatin veronal buffer (GVB) without Ca^++ and Mg^++ (GVB^0), 100 mM MgCl2+100 mM EGTA (MgEGTA) were obtained from Complement Technology Inc. (Tyler, TX). GVB^0·MgEGTA was prepared by mixing GVB^0 and 100 mM MgEGTA in a 9:1 ratio. FITC-conjugated anti-C3c antibody (cat #ab4212) and Alexa Fluor® 647-conjugated anti human CD59 antibody (cat #:ab187769) were purchased from Abcam (Cambridge, MA). […] Ferrone, and F. Mercuriali, The Action of Two Sulfhydryl Compounds on Normal Human Red Cells. Relationship to Red Cells of Paroxysmal Nocturnal Hemoglobinuria. Blood, 1965. 25: p. 502-10). After AET treatment, artificial PNH erythrocytes were centrifuged, supernatant was aspirated and cells were thoroughly washed with phosphate buffered saline (PBS) 3 times followed by washing with GVB^0 buffer ([…]) for additional 3 times. […] C3 fragment deposition on the surface of the erythrocytes was assessed by flow cytometry with BD Accuri C6 cytometer (BD Biosciences, San Jose, CA). […] IC50 values from each experiment were determined by curve-fitting of experimental data (the % C3 fragment-positive cells at increasing concentrations of inhibitor) to the four-parameter sigmoidal dose-response equation using non-linear regression analysis (Prism Software, GraphPad, La Jolla, CA).

[3] = Phase 2 study in PNH subjects: lactate dehydrogenase levels; assay type: in vivo, human; details: Compound 1 100 mg TID + IV eculizumab
Experimental: (§1) The starting dose of compound 1 is based upon group assignment. The Group 1 dose is 100mg three times daily (TID). The Group 2 dose is 150 mg TID. The Group 3 dose is 200 mg TID. The Group 4 dose will receive the optimal dose determined from Groups 1-3.
All doses are taken approximately 15-30 minutes after completion of a meal or snack. […]
(§2) 2 subjects in the first dose level of 100 mg TID have been completed and data collected through 4 weeks. Data collected include lactate dehydrogenase (LDH) levels, hemoglobin levels, reticulocytes, PNH red blood cells (Type III) percentage, C3 Fragment Deposition percentage, and bilirubin levels and their changes from baseline.
Lactate dehydrogenase is a pharmacodynamic marker that is measured from blood drawn on Day 1, Week 1, Week 2, and Week 4 (FIGS. 13A & 13B and Table 15). High levels of LDH in the blood can be an indication of hemolysis.

[4] = system: C3 fragment deposition; assay: Phase 2 study in PNH subjects: C3 fragment deposition percentage; assay type: in vivo, human
Experimental: C3 fragment deposition is measured using blood by flow cytometry that would be known to those of skill in the art. In a typical protocol, a blood sample is collected from eculizumab-treated PNH patients or healthy individuals. Erythrocytes are harvested by centrifugation, washed with PBS several times until the supernatant remains clear. C3 fragment deposition on the PNH erythrocytes membrane is measured by flow cytometry using FITC-conjugated anti-C3c, PE conjugated anti-CD47 and APC-conjugated anti-CD59 following dilution of reaction mixtures in FC buffer. Intact and fragmented PNH erythrocytes are identified by anti-CD47 (positive) and anti-CD59 (negative) staining C3 fragment deposition is assessed by anti-C3c staining.
as §1
All doses are taken approximately 15-30 minutes after completion of a meal or snack.
This will be followed by a long-term extension phase.
as §2
Measurement of C3 fragment deposition percentage is a pharmacodynamic marker that is measured by flow cytometry of subject plasma samples collected on Day 1, Week 2, and Week 4 (FIGS. 17A & 17B and Table 19). Uncontrolled C3 activation due to the absence of CD55 on red blood cells may result in opsonization of red blood cells, leading to clinically meaningful extravascular hemolysis.

CC(=O)c1nn(CC(=O)N2C[C@H](F)C[C@H]2C(=O)Nc2cccc(Br)n2)c2ccc(-c3cnc(C)nc3)cc12 [Compound 1, (2S,4R)-1-(2-(3-acetyl-5-(2-methylpyrimidin-5-yl)-1H-indazol-1-yl)acetyl)-N-(6-bromopyridin-2-yl)-4-fluoropyrrolidine-2-carboxamide]
IC50 [1]: 96 ± 21 nM
IC50 [2]: 27 nM
LDH Observed ([3]; subject 003-001, DAY 1 (baseline)): 357 U/L
LDH CFB (change from baseline) ([3]; subject 003-001, DAY 1): 0 U/L
LDH CFB (change from baseline) ([3]; subject 003-001, WEEK 1): −83 U/L
LDH Observed ([3]; subject 003-001, WEEK 1): 274 U/L
LDH CFB (change from baseline) ([3]; subject 003-001, WEEK 2): −105 U/L
LDH Observed ([3]; subject 003-001, WEEK 2): 252 U/L
LDH CFB (change from baseline) ([3]; subject 003-001, WEEK 4): −86 U/L
LDH Observed ([3]; subject 003-001, WEEK 4): 271 U/L
LDH Observed ([3]; subject 003-002, DAY 1 (baseline)): 210 U/L
LDH CFB (change from baseline) ([3]; subject 003-002, DAY 1): 0 U/L
LDH CFB (change from baseline) ([3]; subject 003-002, WEEK 1): −52 U/L
LDH Observed ([3]; subject 003-002, WEEK 1): 158 U/L
LDH CFB (change from baseline) ([3]; subject 003-002, WEEK 2): −40 U/L
LDH Observed ([3]; subject 003-002, WEEK 2): 170 U/L
LDH CFB (change from baseline) ([3]; subject 003-002, WEEK 4): −31 U/L
LDH Observed ([3]; subject 003-002, WEEK 4): 179 U/L
C3 FRAGMENT DEPOSITION (%) CFB (change from baseline) ([4]; PNH subject 003-001, DAY 1): 0.00%
C3 FRAGMENT DEPOSITION (%) Observed ([4]; PNH subject 003-001, DAY 1 (baseline), flow cytometry): 2.60%
C3 FRAGMENT DEPOSITION (%) CFB (change from baseline) ([4]; PNH subject 003-001, WEEK 2): −0.50%
C3 FRAGMENT DEPOSITION (%) Observed ([4]; PNH subject 003-001, WEEK 2, flow cytometry): 2.10%
C3 FRAGMENT DEPOSITION (%) CFB (change from baseline) ([4]; PNH subject 003-001, WEEK 4): −0.50%
C3 FRAGMENT DEPOSITION (%) Observed ([4]; PNH subject 003-001, WEEK 4, flow cytometry): 2.10%
C3 FRAGMENT DEPOSITION (%) CFB (change from baseline) ([4]; PNH subject 003-002, DAY 1): 0.00%
C3 FRAGMENT DEPOSITION (%) Observed ([4]; PNH subject 003-002, DAY 1 (baseline), flow cytometry): 4.20%
C3 FRAGMENT DEPOSITION (%) CFB (change from baseline) ([4]; PNH subject 003-002, WEEK 2): −3.10%
C3 FRAGMENT DEPOSITION (%) Observed ([4]; PNH subject 003-002, WEEK 2, flow cytometry): 1.10%
C3 FRAGMENT DEPOSITION (%) CFB (change from baseline) ([4]; PNH subject 003-002, WEEK 4): −3.10%
C3 FRAGMENT DEPOSITION (%) Observed ([4]; PNH subject 003-002, WEEK 4, flow cytometry): 1.10%

Source: patent US20250032490A1, “THERAPEUTIC REGIMENS FOR TREATMENT OF PAROXYSMAL NOCTURNAL HEMOGLOBINURIA” (Achillion Pharmaceuticals, Inc., priority 2017, published 2025)
